Molecular target: T1, PPARγ (Homo sapiens, UniProt P37231)
T1 construct: Either way it is a handle, not a second protein
T1 sequence (P37231 238-505 limits assumed): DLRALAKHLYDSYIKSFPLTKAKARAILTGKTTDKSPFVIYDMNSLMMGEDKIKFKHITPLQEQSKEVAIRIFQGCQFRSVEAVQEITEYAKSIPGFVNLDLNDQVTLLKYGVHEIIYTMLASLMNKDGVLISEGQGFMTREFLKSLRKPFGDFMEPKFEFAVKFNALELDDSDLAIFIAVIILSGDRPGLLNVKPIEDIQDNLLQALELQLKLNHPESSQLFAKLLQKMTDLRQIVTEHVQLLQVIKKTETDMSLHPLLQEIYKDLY
Experiment: Crossover-curve PPAR transactivation test (HeLN cells, luciferase reporter), PPARγ
Assay type: cell-based
Conditions: HeLN cells stably transfected with Gal-hPPARγ; Schild regression against reference agonist; n.a. means not active; read-out: PPARγ Kd app
Procedure: The activation of receptors with an agonist (activator) in HeLN cells leads to the expression of a reporter gene, luciferase, which, in the presence of a substrate, generates light. The modulation of the receptors is measured by quantifying the luminescence produced after incubating the cells in the presence of a reference agonist. The ligands displace the agonist from its site. The measurement of the activity is performed by quantifying the light produced. This measurement makes it possible to determine the modulatory activity of the compounds according to the invention by determining the constant that is the affinity of the molecule for the receptor. Since this value can fluctuate depending on the basal activity and the expression of the receptor, it is referred to as Kd apparent (KdApp in nM).
To determine this constant, “crossover curves” of the test product against a reference agonist are performed in a 96-well plate: 10 concentrations of the test product plus a concentration 0 are arranged in a line, and 7 concentrations of the agonist plus a concentration 0 are arranged in a column. This is 88 measurement points for 1 product and 1 receptor. The remaining 8 wells are used for repeatability controls.
Measurements are also taken for total agonist controls with the same products.
The HeLN cell lines used are stable transfectants containing the plasmids ERE-βGlob-Luc-SV-Neo (reporter gene) and PPAR (α, δ, γ) Gal-hPPAR. These cells are inoculated into 96-well plates at a rate of 10 000 cells per well in 100 μl of DMEM medium without phenol red and supplemented with 10% of defatted calf serum. The plates are then incubated at 37° C. and 7% CO2 for 16 hours.
The various dilutions of the test products and of the reference ligand are added at a rate of 5 μl per well. The plates are then incubated for 18 hours at 37° C. and 7% CO2. The culture medium is removed by turning over and 100 μl of a 1:1 PBS/luciferine mixture are added to each well. After 5 minutes, the plates are read by the luminescence detector.

| Compound | Kd [nM] |
| --- | --- |
| CCCCCCCC(=O)N(C)Cc1cccc(-c2ccc(N(C)c3ccccc3C(=O)O)cc2)c1 [Example 8, 2-(methyl-{3′-[(methyloctanoylamino)methyl]biphenyl-4-yl}amino)benzoic acid] | 250 |
| COCCOCOc1ccc2cc(C(=O)N(C)Cc3cccc(-c4ccc(Nc5cccc(C(=O)N6CCC(C)CC6)c5)cc4)c3)ccc2c1 [Example 16, N-methyl-N-{4′-[3-(4-methylpiperidine-1-carbonyl)phenylamino]biphenyl-3-ylmethyl}-6-(2-methoxyethoxymethoxy)naphthalene-2-carboxylamide] | 120 |
| COCCOCOc1ccc2cc(C(=O)N(C)Cc3cccc(-c4ccc(Nc5cccc(C(=O)N6CCOCC6)c5)cc4)c3)ccc2c1 [Example 17] | 500 |
